Where two headings read alike, the source gives them in different places.
How the values were obtained:
[1] = tested on: lymphocytic leukemia P388 (PS); conditions: attributed in U.S. Pat. No. 4,200,639 (disclaimed); cited from earlier work
KB cell = conditions: attributed in U.S. Pat. No. 4,200,639 (disclaimed); cited from earlier work
[2] = tested on: lymphocytic leukemia cells of the strain P388 (PS tumors); assay: lymphocytic leukemia P388 (PS tumors) implanted in mice (NCI Protocol 1.200); assay type: in vivo, mice (CDF1); conditions: active if ≥125%
Method: As previously mentioned, the fractionation of Example 1 was also guided by assaying the effectiveness of the various fractions against lymphocytic leukemia cells of the strain P388 (PS tumors) implanted in mice. These assays were made according to the National Cancer Institute Protocol 1.200 described in Geran et al., supra, page 9. Starting 24 hr. after the tumor implantation, previously determined dosages of each fraction were injected intraperitoneally once a day for 9 days. Survival time of treated leukemic mice is compared to that of untreated leukemic mice (T/C×100). A T/C value of 100% indicated no activity. A T/C value greater than 100% means that the treated mice are surviving longer than the control mice. A fraction giving a T/C value greater than 125% is indicative of activity as defined by the NCI Protocols, above. Activities of the fractions comprising the pure or substantially pure sesbanimide isolates as reported in Table II establish the utility of the compounds as antileukemic agents.
(§1) ^1 All hosts were type CDF1 mice. Six replicate mice were tested
(§2) ^2 The doses are reported as micrograms per kilogram of host body
(§3) weight per injection. The injection vehicle in all cases was water.
(§4) ^3 T/C = mean survival time of test animals/mean survival time of
(§5) control animals; 125% or above considered active.

KB Cell Culture = assay type: cell-based; conditions: Example 1 fractions, active if ED50 ≤30 μg./ml.
Method: Chemotherapeutic Activity. The chemotherapeutic activities of the fractions obtained in the isolation procedure of Example 1 were determined in part by a KB Cell Culture Screen in accordance with the National Cancer Institute Protocol 1.600 [Geran et al., Cancer Chemother, Rep., Part 3, 3(2): 17 (1972)]. […] Such a dose is referred to as ED50 and activity is indicated for ED50 levels of ≤30 μg./ml.

lymphoid leukemia L1210 = lymphoid leukemia L1210 in mice (NCI Protocol 1.100); assay type: in vivo; conditions: female CDF1 mice, active if ≥125%
Method: This assay was conducted in accordance with the NCI Protocol 1.100 described in Geran et al., supra, page 7. Starting 24 hr. after the tumor implantation, predetermined doses of the compound were injected intraperitoneally once a day for 9 days.
as §1, §2, §3, §4, §5

With O=C1NC(=O)[C@@]2(CC[C@@H](O)C2)c2ccncc21 [sesbanine] as the compound, how does the “apparent activity in the PS tumor system” value [1] read?
Its value is “result of a heretofore unidentified impurity”.

What about the “apparent activity in the KB cell screen” value (KB cell) of the same compound?
The value was “result of a heretofore unidentified impurity”.

For C=C1COC(O)(C2OCOC(C3CC(=O)NC(=O)C3)C2O)C1C (stereo not drawn) [Sesbanimide B], which T/C ([2]; male CDF1 mice, 1.87 μg./kg./inj. i.p. once a day for 9 days) is on record?
Its T/C is 157%.

And the T/C ([2]; male CDF1 mice, 3.75 μg./kg./inj. i.p. once a day for 9 days)?
The T/C was 161%.

What about the T/C ([2]; male CDF1 mice, 7.50 μg./kg./inj. i.p. once a day for 9 days) of the same compound?
Its T/C is “toxic”.

What about the “ED50 (dose that inhibits growth to 50% of control growth by 3 days after drug addition)” value (KB Cell Culture; listed as K442, 4320 min) of the same compound?
The value was 0.068 µg/mL.

With C=C1COC(O)(C2OCOC(C3CC(=O)NC(=O)C3)C2O)C1C (stereo not drawn) [Sesbanimide A] as the compound, how does the T/C (lymphoid leukemia L1210; 16.00 μg./kg./inj. i.p. once a day for 9 days) read?
The T/C was 116%.

What about the T/C (lymphoid leukemia L1210; 32.00 μg./kg./inj. i.p. once a day for 9 days) of the same compound?
Its T/C is 135%.

And the T/C (lymphoid leukemia L1210; 64.00 μg./kg./inj. i.p. once a day for 9 days)?
Its T/C is “toxic”.

And the T/C ([2]; female CDF1 mice, 2.00 μg./kg./inj. i.p. once a day for 9 days)?
The T/C was 119%.

What about the T/C ([2]; female CDF1 mice, 4.00 μg./kg./inj. i.p. once a day for 9 days) of the same compound?
Its T/C is 119%.

And the T/C ([2]; female CDF1 mice, 8.00 μg./kg./inj. i.p. once a day for 9 days)?
Its T/C is 140%.

What about the T/C ([2]; female CDF1 mice, 16.00 μg./kg./inj. i.p. once a day for 9 days) of the same compound?
The T/C was 149%.

And the T/C ([2]; female CDF1 mice, 32.00 μg./kg./inj. i.p. once a day for 9 days)?
Its T/C is 181%.

What about the “ED50 (dose that inhibits growth to 50% of control growth by 3 days after drug addition)” value (KB Cell Culture; listed as K443, 4320 min) of the same compound?
Its value is 0.0077 µg/mL.
